Laboratory results taken from patent publication US9302999B2, “Substituted triazoles as herbicides” (E. I. DU PONT DE NEMOURS AND COMPANY, priority 2012, dated 2016).

Key:
[1] = test system: blackgrass (Alopecurus myosuroides); experiment: Test D pre-/postemergence: blackgrass; assay type: in vivo
Outline: (§1)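 Visual control ratings (0–100) after 14–21 days, controlled environment. Preemergence on silt loam; postemergence on 2–18 cm plants.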

[2] = test system: wheat, spring (spring wheat, Triticum aestivum); experiment: Test D pre-/postemergence: wheat, spring; assay type: in vivo
Outline: as §1

Barnyardgrass [3] = experiment: Test C postemergence: barnyardgrass; assay type: in vivo, Echinochloa crus-galli
Source text: At the same time, plants selected from these crop and weed species and also barley (winter barley, Hordeum vulgare), canarygrass (Phalaris minor), chickweed (common chickweed, Stellaria media) windgrass (Apera spica-venti) and deadnettle (henbit deadnettle, Lamium amplexicaule) were planted in pots containing Redi-Earth® planting medium (Scotts Company, 14111 Scottslawn Road, Marysville, Ohio 43041) comprising spaghnum peat moss, vermiculite, wetting agent and starter nutrients and treated with postemergence applications of test chemicals formulated in the same manner. Plants ranged in height from 2 to 18 cm (1- to 4-leaf stage) for postemergence treatments.
Treated plants and controls were maintained in a greenhouse for 13 to 15 days, after which time all species were compared to controls and visually evaluated. Plant response ratings, summarized in Table C, are based on a scale of 0 to 100 where 0 is no effect and 100 is complete control. A dash (-) response means no test result.

Oilseed Rape = experiment: Test C postemergence: oilseed rape; assay type: in vivo
Outline: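 Greenhouse pot test; foliar postemergence treatment at 1- to 4-leaf stage. Rated visually at 13 to 15 days on a 0–100 control scale relative to untreated plants.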

Barnyardgrass [4] = experiment: Test C preemergence: barnyardgrass; assay type: in vivo, Echinochloa crus-galli
[5] = Postemergence, 31 g ai/ha, scale 0 to 100 (0 no effect, 100 complete control)
[6] = Postemergence, 62 g ai/ha, scale 0 to 100 (0 no effect, 100 complete control)
[7] = Postemergence, 125 g ai/ha, scale 0 to 100, 0 no effect, 100 complete control
[8] = Postemergence, 16 g ai/ha, scale 0 to 100
[9] = Preemergence, 16 g ai/ha, scale 0 to 100, 0 no effect, 100 complete control
[10] = Preemergence, 31 g ai/ha, scale 0 to 100, 0 no effect, 100 complete control
[11] = Preemergence, 62 g ai/ha, scale 0 to 100
[12] = Preemergence, 125 g ai/ha, scale 0 to 100
[13] = 31 g ai/ha, scale 0 to 100 (0 no effect, 100 complete control)
[14] = 62 g ai/ha, scale 0 to 100 (0 no effect, 100 complete control)
[15] = 31 g ai/ha, scale of 0 to 100, 0 is no effect, 100 is complete control
[16] = 62 g ai/ha, scale of 0 to 100, 0 is no effect, 100 is complete control
[17] = 125 g ai/ha, scale 0 to 100, 0 no effect, 100 complete control

Row | Structure (SMILES) | Plant response rating: Blackgrass [1, 5] | Plant response rating: Blackgrass [1, 6] | Plant response rating: Blackgrass [1, 7] | Plant response rating, Blackgrass [1, 8] | Plant response rating, Blackgrass [1, 9] | Plant response rating, Blackgrass [1, 10] | Plant response rating, Blackgrass [1, 11] | Plant response rating, Blackgrass [1, 12] | Plant response rating: Wheat, Spring [2, 5] | Plant response rating: Wheat, Spring [2, 6] | Plant response rating: Wheat, Spring [2, 7] | Plant response rating, Wheat, Spring [2, 8] | Plant response rating, Wheat, Spring [2, 9] | Plant response rating, Wheat, Spring [2, 10] | Plant response rating, Barnyardgrass (Barnyardgrass [3]; [13]) | Plant response rating, Barnyardgrass (Barnyardgrass [3]; [14]) | Plant response rating, Barnyardgrass (Barnyardgrass [3]; 250 g ai/ha, scale 0 to 100) | Plant response rating, Oilseed Rape (Oilseed Rape; [14]) | Plant response rating, Barnyardgrass (Barnyardgrass [4]; [16]) | Plant response rating, Barnyardgrass (Barnyardgrass [4]; [17]) | also measured
1 | CCc1nn(-c2ccc(C(F)(F)F)cc2)nc1Cc1ccnc(C(F)(F)F)c1 [Compound 155] | 50 | 60 | 85 | 5 | 5 | 10 | 20 | 70 | 20 | 25 | 50 | 15 | 0 | 0 | 25 | 35 | 75 | 90 | 90 | 98 | Plant response rating, Wheat, Spring [2, 11]: 0; Plant response rating, Wheat, Spring [2, 12]: 5; Plant response rating, Oilseed Rape (Oilseed Rape; [13]): 90; Plant response rating, Oilseed Rape (Oilseed Rape; 250 g ai/ha, scale 0 to 100): 95; Plant response rating, Barnyardgrass (Barnyardgrass [4]; [15]): 40
2 | Cc1nn(-c2ccc(F)c(C(F)(F)F)c2)nc1Cc1ccnc(C(F)(F)F)c1 [Compound 156] | 15 | 35 | 60 | 10 | 0 | 5 | 15 | 70 | 15 | 20 | 25 | 10 | 0 | 0 | 20 | 30 | 55 | 90 | 90 | 90 | Plant response rating, Wheat, Spring [2, 11]: 0; Plant response rating, Wheat, Spring [2, 12]: 5; Plant response rating, Oilseed Rape (Oilseed Rape; [13]): 80; Plant response rating, Oilseed Rape (Oilseed Rape; 250 g ai/ha, scale 0 to 100): 95; Plant response rating, Barnyardgrass (Barnyardgrass [4]; [15]): 85
3 | CCOc1nn(-c2ccc(Cl)cc2)nc1Cc1ccnc(C(F)(F)F)c1 [Compound 188] |  |  |  |  |  |  |  |  |  |  |  |  |  |  | 75 | 95 | 100 | 90 | 100 | 100 | Plant response rating, Barnyardgrass (Barnyardgrass [4]; 31 g ai/ha, scale 0 (no effect) to 100 (complete control)): 80
